{
  "source": "patent EP2752664A1",
  "about": "“Label-free method for the detection of analytes” (priority 2013, dated 2014)",
  "key": {"[1]": {"biological_target": "T1, mannose/Concanavalin A interaction (Canavalia ensiformis, UniProt P02866)", "settings": "SPR measurements reported earlier; PAA Man values normalized per mannose; read-out: IC50 value determined using SPR inhibition assay; cited from earlier work"}, "[2]": {"biological_target": "T1, mannose/Concanavalin A interaction", "assay": "Inhibition competition assay with hydrogel particles, surface energy read out via RICM (SCP-RICM, inventive method)", "format": "binding", "settings": "for IC50: read-out: IC50 value determined using an inventive method"}},
  "note": "Where two headings read alike, the source gives them in different places.",
  "data": [
    {"smiles": "CO[C@H]1O[C@H](CO)[C@@H](O)[C@H](O)[C@@H]1O", "note": "[α-methyl-D-mannose]", "values": [
      {"measurement": "IC50", "setting": "[1]", "value": 750, "unit": "µM"},
      {"measurement": "contact areas of functionalized hydrogel particles and surface energies", "setting": "[2]; 10 mM analyte added into the measurement cell (critical level of competitive analyte)", "value": "completely vanish"},
      {"measurement": "surface energy", "setting": "[2]; analyte at lower concentrations up to 5 mM, particles still in contact with the carrier surface", "value": "gradually decreases with the concentration of added analyte"},
      {"measurement": "IC50", "setting": "[2]; inverted system: PEG-ConA particles against a mannose functionalized surface (Fig. 7b)", "value": "649 ± 76.8", "unit": "µM"},
      {"measurement": "IC50", "setting": "[2]; mannose functionalized hydrogel particles, ConA immobilized on the solid carrier (Fig. 7a), Hill fit of normalized surface energy, PAA Man values normalized per mannose", "value": "618 ± 19.1", "unit": "µM"}
    ]}
  ]
}
